Publication PMC7277387, “Tailoring Uptake Efficacy of HSV-1 gD Tailoring Uptake Efficacy of Hsv-1 GD Derived Carrier Peptides” (Biomolecules, 2020)

What was measured:
[1] = tested on: SH-SY5Y neuroblastoma cells; test: Cellular uptake of Cf-labelled peptides by flow cytometry; conditions: for cellular uptake (in words): Figure S19
[2] = assay type: physicochemical; conditions: 1 mg/mL in serum-free DMEM, 37 °C, samples at 0, 3, 6 and 24 h, RP-HPLC C18, A220
Description: Before the cellular uptake studies the stability of the Cf-labelled synthetic peptides was determined. Peptides were dissolved at 1 mg/mL concentration in serum-free DMEM medium (Lonza, Basel, Switzerland), and incubated at 37 °C for 24 h. Samples for RP-HPLC (Knauer, Berlin, Germany) were taken at 0, 3, 6 and 24 h. Phenomenex Luna C18 column (5 μm, 300 Å, 4.6 mm × 250 mm) (Gen-Lab Ltd., Budapest, Hungary) was applied with a gradient of 0–5 min 5% B eluent elevated to 55% B during 25 min, where eluent A: 0.1% TFA/water, eluent B: 0.1% TFA/acetonitrile–water 80:20 (v/v).
Figure S12. Stability study of (a) Cf-(236-255) and (b) Cf-(228-247), dissolved in DMEM serum free medium and incubated at 37 °C, followed by RP-HPLC. Samples for RP-HPLC (Knauer, Berlin, Germany) were taken at 0, 3, 6 and 24 hrs. Phenomenex Luna C18 column (5 μm, 300 Å, 4.6 mm × 250 mm) was applied with a gradient of 0-5 min 5% eluent B elevated to 55% B during 25 min, where eluent A: 0.1% TFA / water, eluent B: 0.1% TFA / acetonitrile –water 80:20 (v/v). Control: DMEM serum free medium. In case of Cf-(236-255) evaporation during the incubation caused increasing peptide peaks. Both peptides contain oxidation sensitive Trp residue. Cf -(236-255) was stable even after 24 h, the rising intensity of the peak representing the peptide is due to evap oration during the […]
to be stable during this interval. […]

[3] = Secondary structure of acetylated peptides by far-UV ECD spectroscopy; assay type: physicochemical; conditions: acetylated peptide; for α-helix fraction (PEPFIT): far-UV ECD, PEPFIT fit
Description: ECD spectra of acetylated HSV peptides were recorded using a Jasco J-810 and Jasco J-715 spectropolarimeter (Jasco Corporation, Tokyo, Japan) in the λ = 180–270 nm wavelength range using a 0.02 or a 0.1 cm path length quartz cell at room temperature, under constant nitrogen flush with continuous scanning mode. All spectra reported here were obtained as an average of three or five individual scans and corrected with the solvent ECD spectra. The J-810 equipment was calibrated with ammonium α-10-camphor-sulfonate. The samples were dissolved in trifluoroethanol (TFE) (Sigma), distilled water and a 1:1 (v/v) mixture of TFE:water. The solution concentration was in the range of 0.5–0.7 mg/mL (J-810) or ~0.14 mg/mL (J-715) for peptide amides. ECD band intensities are expressed in mean residual molar ellipticity unit. The percentage of the different conformational elements contributing to the ECD spectra was calculated by the MS Excel version of the PEPFIT program developed originally by Reed and Reed. The algorithm estimates the percentage of secondary contents by fitting experimental ECD data to the combination of reference spectra. The best fit is defined by the R^2 value, where an R^2 = 1 corresponds to a perfect match.
The helical content of the peptides in different solvents was also estimated employing the simple equation formulated by Chen and Yang: fH = -([Θ]222 + 2340)/30,300 where fH the fraction of helix and [Θ]222 is the measured mean residual ellipticity at 222 nm. It seems that the helical fractions obtained correlate favourably with the results of the curve fitting procedure (Table 2). […]

Cf-^219M*LPRFIPENQRTVAVYSLKI^238 [Cf-(219–238)]
percentage of Cf-positive live cells ([1]; c = 2 μM, 3 h): 15–20%

Cf-TKPKGTKPKG [OT10]
cellular uptake (in words) ([1]; c = 10 µM, compared with Cf-HSV peptides): did not reach the level of internalisation of HSV peptides even with moderate uptake level | cellular uptake (in words) ([1]; c = 50 µM): effective cellular uptake, though not reaching 100%

CC[C@H](C)[C@H](NC(=O)[C@H](CCCCN)NC(=O)[C@H](CC(C)C)NC(=O)[C@H](CO)NC(=O)[C@H](Cc1ccc(O)cc1)NC(=O)[C@@H](NC(=O)[C@H](C)NC(=O)[C@@H](NC(=O)[C@@H](NC(=O)[C@H](CCCNC(=N)N)NC(=O)[C@H](CCC(N)=O)NC(=O)c1ccc2c(c1)C(=O)OC21c2ccc(O)cc2Oc2cc(O)ccc21)[C@@H](C)O)C(C)C)C(C)C)C(=O)N[C@@H](C)C(=O)NCC(=O)N[C@@H](Cc1c[nH]c2ccccc12)C(=O)N[C@@H](Cc1c[nH]cn1)C(=O)NCC(=O)N1CCC[C@H]1C(=O)N[C@@H](CCCCN)C(=O)N[C@@H](C)C(=O)N1CCC[C@H]1C(N)=O [Cf-(228–247)]
stability of the intact peptide [2]: decreased intensity of the intact peptide

^-1 GKYALADASLKMADPNRF^19 [acetylated HSV-1 gD -1–19 peptide amide for ECD]
disordered fraction (PEPFIT) ([3]; H2O): 64% | turn fraction (PEPFIT) ([3]; H2O): 24% | β-sheet fraction (PEPFIT) ([3]; H2O): 4% | α-helix fraction (PEPFIT) ([3]; H2O, room temperature): 8% | disordered fraction (PEPFIT) ([3]; H2O:TFE 1:1 (v/v)): 10% | turn fraction (PEPFIT) ([3]; H2O:TFE 1:1 (v/v)): 40% | β-sheet fraction (PEPFIT) ([3]; H2O:TFE 1:1 (v/v)): 0% | α-helix fraction (PEPFIT) ([3]; H2O:TFE 1:1 (v/v)): 50% | disordered fraction (PEPFIT) ([3]; TFE): 0% | turn fraction (PEPFIT) ([3]; TFE): 30% | β-sheet fraction (PEPFIT) ([3]; TFE): 0% | α-helix fraction (PEPFIT) ([3]; TFE): 70%

CC[C@H](C)[C@H](NC(=O)[C@H](CCCCN)NC(=O)[C@H](CC(C)C)NC(=O)c1ccc2c(c1)C(=O)OC21c2ccc(O)cc2Oc2cc(O)ccc21)C(=O)N[C@@H](C)C(=O)NCC(=O)N[C@@H](Cc1c[nH]c2ccccc12)C(=O)N[C@@H](Cc1c[nH]cn1)C(=O)NCC(=O)N1CCC[C@H]1C(=O)N[C@@H](CCCCN)C(=O)N[C@@H](C)C(=O)N1CCC[C@H]1C(=O)N[C@@H](Cc1ccc(O)cc1)C(=O)N[C@H](C(=O)N[C@@H](CO)C(=O)N[C@H](C(=O)N[C@@H](CC(C)C)C(=O)N[C@@H](CC(C)C)C(=O)N1CCC[C@H]1C(=O)N1CCC[C@H]1C(N)=O)[C@@H](C)O)[C@@H](C)O [Cf-(236–255)]
stability of the intact peptide [2]: stable even
